Measured values as given in PubChem BioAssay (NCI).
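Five compound concentrations were applied to cells in 96-well plates for 48 hours; endpoints were derived by simple linear interpolation of the resulting dose-response curve. GI50 = concentration required for 50% inhibition of growth. TGI is the concentration that stops growth completely.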

Experiments:
Experiment in all cases: DTP human tumour cell line panel, 48 h
[1] = system: DU-145 prostate
[2] = system: MALME-3M melanoma
[3] = system: NCI-H460 lung
[4] = system: HOP-92 NSCLC
[5] = system: MCF7 breast
[6] = system: M14 melanoma
[7] = system: HS 578T breast
[8] = system: SK-MEL-28 melanoma
[9] = system: UO-31 renal
[10] = system: SF-295 CNS

Structure (SMILES)	TGI [1]	TGI [2]	TGI [3]	TGI [4]	TGI [5]	TGI [6]	TGI [7]	TGI [8]	TGI [9]	TGI [10]	GI50 [1]	GI50 [2]	GI50 [3]	GI50 [4]	GI50 [5]	GI50 [6]	GI50 [7]	GI50 [8]	GI50 [9]	GI50 [10]
CC(=O)OC1CC[C@@]2(C)C(=CC[C@@H]3[C@@H]2CC[C@]2(C)Nc4c(cnn4-c4ccc(F)cc4)C[C@@H]32)C1 (stereo not given in full)	> 100 µM	> 77.6 µM	> 100 µM	> 100 µM	> 95.6 µM	> 100 µM	> 100 µM	> 100 µM	> 100 µM	36.4 µM										
CC(C)C(C=O)C(O)(C(F)(F)F)C(F)(F)F (stereo not given)	> 100 µM	> 100 µM	> 100 µM	> 100 µM	> 100 µM	> 100 µM	> 100 µM	> 100 µM	> 100 µM	> 100 µM										
CN(CCCNC(=O)c1[nH]nc2c1ccc1ccccc12)CCCNC(=O)c1[nH]nc2c1ccc1ccccc12	31.8 µM	22.4 µM	38 µM	28.3 µM	28.7 µM	20.1 µM	33.5 µM	4.54 µM	31.4 µM	32.5 µM										
C=c1c2ccccc2oc2nc3[nH]c(N)c(C#N)c(N)c3c(=N)c12	> 100 µM	78.7 µM	> 100 µM	> 100 µM	> 100 µM	> 100 µM	86.2 µM	> 100 µM	> 100 µM	> 100 µM										
O=C1C(Nc2ccc(S(=O)(=O)Nc3cnc4ccccc4n3)cc2)=CC(=Nc2ccc(S(=O)(=O)Nc3cnc4ccccc4n3)cc2)c2ccccc21	30.7 µM	33.8 µM	31.7 µM	28.7 µM	42.4 µM	33.7 µM	> 100 µM	33 µM	30.4 µM	30.3 µM										
Cc1ccnc2[nH]c(-c3ccc(Cl)cc3)cc(=O)c12	> 100 µM	> 100 µM	> 100 µM	> 100 µM	> 100 µM	> 100 µM	> 100 µM	> 100 µM	> 100 µM	> 100 µM										
C=C1C(O)C2OC(=O)C(=C)C2C(OC(=O)/C(C)=C/C)CC2(C)OC2C2OC12 (stereo not given)	> 100 µM	29 µM	91.6 µM	65.4 µM	22.6 µM	> 100 µM	> 100 µM	> 100 µM	81.3 µM	50.9 µM										
O=C(/C=C/c1cc2ccccc2[nH]c1=O)c1ccc(O)cc1	14.3 µM	33.6 µM	6.87 µM	23.2 µM	16.8 µM	6.57 µM	> 100 µM	19.5 µM	26.7 µM	44 µM	4.02 µM	10.4 µM	2.39 µM	3.26 µM	3.49 µM	2.6 µM	6.14 µM	5.11 µM	4.38 µM	7.04 µM
c1ccc(C(OCCN2CC3CCC(C2)N3)c2ccccc2)cc1	> 100 µM	30.5 µM	> 100 µM	75.6 µM	> 100 µM	32.3 µM	> 100 µM	> 100 µM	> 100 µM	> 100 µM										
C1=Nc2ccc(cc2)-c2ccc(cc2)N=Cc2ccccc2OCc2cccc(n2)COc2ccccc21	> 100 µM	> 100 µM	> 100 µM	> 60 µM	> 100 µM	> 100 µM	47 µM	> 100 µM	> 100 µM	> 75.9 µM										
CN1CN(c2ccccc2)C2(CCN(C(=O)OC(C)(C)C)CC2)C1=O	> 100 µM	> 100 µM	> 100 µM	> 100 µM	> 100 µM	> 100 µM	> 100 µM	> 100 µM	> 100 µM	> 100 µM										
CC(=O)[C@H]1CC[C@@H]2[C@]1(C)CC=C1[C@]23C=C[C@]2(C[C@@H](O)CC[C@]12C)C(C(=O)O)C3C(=O)O (stereo not given in full)	> 100 µM	> 100 µM	> 100 µM	> 100 µM	> 100 µM	> 100 µM	> 100 µM	> 100 µM	> 100 µM	> 100 µM										
N#Cc1ccccc1C#C/C=C\C#Cc1ccccn1	83.5 µM	39.6 µM	44.3 µM	> 100 µM	33.5 µM	28.8 µM	38.3 µM	36 µM	32.3 µM	52.7 µM										
CCc1c[n+]2c(cc1C1=CN3c4ccccc4[C@]45CCN6C/C(=C/CO)[C@H](C[C@H]64)[C@@H]([C@@H]1O)[C@H]35)-c1[nH]c3ccccc3c1CC2	> 50 µM	> 50 µM	> 50 µM	> 50 µM	> 50 µM	> 50 µM	> 50 µM	> 50 µM	> 50 µM	> 50 µM										
